US4579865A, “Benzofuranyl carbamates” (USV Pharmaceutical Corp., priority 1984, dated 1986)

Assays:
Canine cardiac lipases = assay: Myocardial lipase assay; type: biochemical; details: triolein emulsion, pH 6.8, read-out: Lipase I50
Experimental: All compounds were dissolved in DMSO (final concentration 3.0%) and tested in duplicate at a concentration of 100 μM. Canine cardiac lipases were obtained by extracting washed heart membranes with buffer plus heparin and a small amount of Triton X-100 detergent. Because these enzymes are only active at an oil-water interface, the enzyme reaction is run in an oil-water emulsion that contains triolein substrate, Tris buffer (50 mM, pH 6.8) and a small amount of bovine serum albumin (0.5%) added to stabilize the emulsion. A small amount of tritiated triolein was added to the unlabelled triolein substrate. Tritium-labelled oleic acid released by the lipases was extracted into hexane, separated from unreacted triolein and counted in a scintillation counter. Inhibitory agents reduce the amount of radioactivity appearing in the free fatty acid fraction isolated in the extraction procedure.

rat adipocyte lipolysis = assay: Rat adipocyte assay (epinephrine-stimulated lipolysis, glycerol release); type: cell-based; details: rat adipocytes, epinephrine 3 μM plus methylisobutylxanthine 10 μM, 1 hour 37° C., read-out: Adipocyte I50
Experimental: Abdominal fat pads were removed from male rats weighing 200-250 grams and placed in Krebs-bicarbonate buffer gassed with 95% O2 /5% CO2. The fat pads were digested with collagenase for 1 hour at 37° C., washed twice with Krebs-bicarbonate buffer and distributed among a set of 20 ml plastic counting vials. Two such vials received only buffer and cells (4 ml) but no agonists or antagonists. The remaining vials received epinephrine (3 μM) plus the phosphodiesterase inhibitor methylisobutylxanthine (10 μM). Test compounds were dissolved in DMSO or water to a concentration of […] and 40 μl was added to the buffer plus cells in the counting vials. The final compound concentration for routine screening was 200 μM (final concentration of DMSO=1%).
The cells were incubated for 1 hour at 37° C. under a 95% O2 /5% CO2 atmosphere. The incubation was stopped by placing the vials in crushed ice. The cells and medium were transferred to test tubes, centrifuged and the cell layer removed by aspiration. The aqueous phase was assayed for glycerol using the enzyme glycerol dehydrogenase. The glycerol dihydrogenase assay for glycerol depends on the enzyme catalyzed conversion of glycerol to glyceraldehyde and NAD to NADH. The assay can detect as little as 5-10 nanomoles of glycerol. The aqueous phase, following removal of cells, usually contained about 50 to 80 nanomoles of glycerol per 300 μl of assayed sample if no inhibitory activity was present. Samples from the control tubes (no agonist) usually contained 0-5 nanomoles of glycerol per 300 μl of sample.

In Vivo Lipolysis = assay: In vivo lipolysis assay (serum unesterified fatty acids in fasted rats); parameters: species or system rat; details: 2 hours after drug

For O=C(NC1CCCCC1)Oc1cccc2ccoc12 [Example 3, 7-Benzofuranyl N-(cyclohexyl)carbamate], the IC50 (Canine cardiac lipases) was 10 µM, the IC50 (rat adipocyte lipolysis) was 12 µM and the “In Vivo Lipolysis % Inhib. at mg/Kg” value (In Vivo Lipolysis; 100 mg/Kg p.o.) was 26%.
COc1ccc(NC(=O)Oc2cccc3ccoc23)c(OC)c1 [Example 2, 7-Benzofuranyl N-(2,4-dimethoxy)phenyl carbamate] was tested, and the IC50 (Canine cardiac lipases) was 40 µM, the IC50 (rat adipocyte lipolysis) was 0.3 µM and the “In Vivo Lipolysis % Inhib. at mg/Kg” value (In Vivo Lipolysis; 100 mg/Kg p.o.) was 71%.
COc1ccc(NC(=O)Oc2cccc3ccoc23)cc1 [Example 1, 7-Benzofuranyl N-(4-methoxyphenyl)carbamate] was tested, and the IC50 (Canine cardiac lipases) was 16 µM, the IC50 (rat adipocyte lipolysis) was 0.3 µM and the “In Vivo Lipolysis % Inhib. at mg/Kg” value (In Vivo Lipolysis; 25 mg/Kg p.o.) was 97%.
With COc1ccc(NC(=O)Oc2cccc3ocnc23)cc1 [Example 4, 4-Benzoxazoyl N-(4-methoxyphenyl)carbanamate] the IC50 (Canine cardiac lipases) was 79 µM, the IC50 (rat adipocyte lipolysis) was 2.4 µM and the “In Vivo Lipolysis % Inhib. at mg/Kg” value (In Vivo Lipolysis; 100 mg/Kg i.p.) was 40%.
